Entries after “also recorded” stand apart in the source; their conditions may differ.
Experiments:
[1] = Pharmacokinetics and oral bioavailability in C3H mice, plasma levels by LC-MS; type: in vivo; conditions: for bioavailability: po, 10 mg/kg; for Plasma drug concentrations at higher PO dose: mice, PO 100 mg/kg in suspension, data not shown
HIV-1NL4-3 = test: Nef-dependent HIV-1 replication in U87MG/CD4/CXCR4 cells, p24 Gag ELISA; type: cell-based; conditions: 3 μM, 4 days
HIV-1 Nef = HIV-1 Nef (Human immunodeficiency virus type 1 group M subtype B, UniProt P03406); test: SPR direct binding to immobilized recombinant Nef
[2] = C3H, mouse, plasma, iv, 2 mg/kg

Compound	half-life [1, 2] [h]	Effect on Nef-dependent enhancement of HIV-1 replication (HIV-1NL4-3)	AUC(0-inf) [1, 2] [ng·h/mL]	Cmax [1, 2] [ng/mL]	Vd [1, 2] [L/kg]	clearance [1, 2] [mL/min/kg]	bioavailability ([1]; C3H, mouse, plasma) [%]	Plasma drug concentrations at higher PO dose [1]	Reduction of binding affinity for Nef relative to B9 parent compound (HIV-1 Nef) [fold]	Nef binding by SPR (in words) (HIV-1 Nef)	AUC(0-t) [1, 2] [ng·h/mL]
NC(=S)n1nc(-c2ccc([N+](=O)[O-])cc2)c(/N=N/c2cccc(Cl)c2)c1O [Compound 1]	> 2	–	–	–	–	–	–	–	–	–	–
NC(=S)n1nc(-c2ccc([N+](=O)[O-])cc2)c(CCc2cccc(Cl)c2)c1O [Compound 2]	2.7	suppressed Nef-dependent enhancement of HIV-1 replication to the same extent as B9	2470	11200	0.91	15.5	53 to 85	proportionally higher plasma drug concentrations	2	–	–
O=[N+]([O-])c1ccc(-c2n[nH]c(O)c2CCc2cccc(Cl)c2)cc1 [Compound 3]	–	no activity	–	–	–	–	–	–	–	dramatic loss of Nef binding; also recorded: fail to bind to Nef	–
NC(=S)n1nc(-c2ccc([N+](=O)[O-])cc2)c(Cc2cccc(Cl)c2)c1O [Compound 4]	–	suppressed Nef-dependent enhancement of HIV-1 replication to the same extent as B9	3890	3880	0.95	11.2	57 to 100	proportionally higher plasma drug concentrations	–	–	3770
O=[N+]([O-])c1ccc(-c2n[nH]c(O)c2Cc2cccc(Cl)c2)cc1 [Compound 5]	–	no activity	–	–	–	–	–	–	–	dramatic loss of Nef binding; also recorded: fail to bind to Nef	–
